Here are results for 3 compounds from ChEMBL document CHEMBL6103629 (J Med Chem, 2025).

For test [1], the system named is NCI-H1703. Kind of test: Antitumor activity against human NCI-H1703 cells xenografted in female Balb/c nude mouse assessed as tumor growth inhibition at 50 mg/kg […] administered as 3 days on and 4 days off schedule for 4 weeks relative to control. The test is classed as functional. The settings on record: NCI-H1703, 672 h, time 28 day, read-out: TGI. A general note: In xenograft studies the graft and the host belong to different species.

The test system of test [2] is LoVo. Put plainly: Induction of apoptosis in human LoVo cells assessed as early apoptotic cells at 3 uM incubated for 24 hrs by Annexin-V-FITC-PI staining based flow cytometric analysis (reference value: 13.7 %). Format: functional. In general terms: A flow cytometer gives signals particle by particle.
The subject of test [3] is LoVo. Put plainly: Induction of apoptosis in human LoVo cells assessed as viable cells at 3 uM incubated for 24 hrs by Annexin-V-FITC-PI staining based flow cytometric analysis (reference value: 72.1 %). The test is classed as functional. The settings on record: read-out: Activity.
Test [4] deals with LoVo. Kind of test: Induction of apoptosis in human LoVo cells assessed as necrotic cells at 3 uM incubated for 24 hrs by Annexin-V-FITC-PI staining based flow cytometric analysis (reference value: 0.97 %). The test is classed as functional.
Another test concerns CWR22R. Kind of test: Antiproliferative activity against human 22Rv1 cells incubated for 120 hrs by Cell-titer Glo luminescent assay. The settings on record: 22Rv1, 120 h.
The subject of test [5] is LoVo. Put plainly: Induction of apoptosis in human LoVo cells assessed as late apoptotic cells at 3 uM incubated for 24 hrs by Annexin-V-FITC-PI staining based flow cytometric analysis (reference value: 13.2 %). The test is classed as functional.
Test [6] deals with LoVo. Kind of test: Antitumor activity against human LoVo cells xenografted in female Balb/c nude mouse assessed as tumor growth inhibition at 50 mg/kg QD, po measured every 3 days for 25 days relative to control. Format: functional. To be noted: 600 h, time 25 day, read-out: TGI.
Test [7] relates to NCI-H1703. Put plainly: Antitumor activity against human NCI-H1703 cells xenografted in female Balb/c nude mouse assessed as tumor growth inhibition at 50 mg/kg QD, po measured every 3 days for 28 days by vernier caliper based analysis relative to control. Format: functional. To be noted: NCI-H1703, 672 h, time 28 day, read-out: TGI.
The subject of a further test is JeKo-1. Put plainly: Antitumor activity against human JeKo-1 cells xenografted in female CB17 SCID mouse assessed as tumor growth inhibition at 50 mg/kg BID, po measured every 2 days for 24 days relative to control. Format: functional. The settings on record: JeKo-1, 576 h, time 24 day, read-out: TGI.
In a further test the test system is NCI-H146. Put plainly: Antiproliferative activity against human NCI-H146 cells. Format: functional, cell-based.
Test [8] has as its target Serine/threonine-protein kinase ATR (Homo sapiens, UniProt Q13535). Put plainly: Inhibition of ATR (unknown origin) assessed as reduction in p53 phosphorylation level incubated for 30 mins by TR-FRET assay.

Chain of Serine/threonine-protein kinase ATR (Q13535 whole entry): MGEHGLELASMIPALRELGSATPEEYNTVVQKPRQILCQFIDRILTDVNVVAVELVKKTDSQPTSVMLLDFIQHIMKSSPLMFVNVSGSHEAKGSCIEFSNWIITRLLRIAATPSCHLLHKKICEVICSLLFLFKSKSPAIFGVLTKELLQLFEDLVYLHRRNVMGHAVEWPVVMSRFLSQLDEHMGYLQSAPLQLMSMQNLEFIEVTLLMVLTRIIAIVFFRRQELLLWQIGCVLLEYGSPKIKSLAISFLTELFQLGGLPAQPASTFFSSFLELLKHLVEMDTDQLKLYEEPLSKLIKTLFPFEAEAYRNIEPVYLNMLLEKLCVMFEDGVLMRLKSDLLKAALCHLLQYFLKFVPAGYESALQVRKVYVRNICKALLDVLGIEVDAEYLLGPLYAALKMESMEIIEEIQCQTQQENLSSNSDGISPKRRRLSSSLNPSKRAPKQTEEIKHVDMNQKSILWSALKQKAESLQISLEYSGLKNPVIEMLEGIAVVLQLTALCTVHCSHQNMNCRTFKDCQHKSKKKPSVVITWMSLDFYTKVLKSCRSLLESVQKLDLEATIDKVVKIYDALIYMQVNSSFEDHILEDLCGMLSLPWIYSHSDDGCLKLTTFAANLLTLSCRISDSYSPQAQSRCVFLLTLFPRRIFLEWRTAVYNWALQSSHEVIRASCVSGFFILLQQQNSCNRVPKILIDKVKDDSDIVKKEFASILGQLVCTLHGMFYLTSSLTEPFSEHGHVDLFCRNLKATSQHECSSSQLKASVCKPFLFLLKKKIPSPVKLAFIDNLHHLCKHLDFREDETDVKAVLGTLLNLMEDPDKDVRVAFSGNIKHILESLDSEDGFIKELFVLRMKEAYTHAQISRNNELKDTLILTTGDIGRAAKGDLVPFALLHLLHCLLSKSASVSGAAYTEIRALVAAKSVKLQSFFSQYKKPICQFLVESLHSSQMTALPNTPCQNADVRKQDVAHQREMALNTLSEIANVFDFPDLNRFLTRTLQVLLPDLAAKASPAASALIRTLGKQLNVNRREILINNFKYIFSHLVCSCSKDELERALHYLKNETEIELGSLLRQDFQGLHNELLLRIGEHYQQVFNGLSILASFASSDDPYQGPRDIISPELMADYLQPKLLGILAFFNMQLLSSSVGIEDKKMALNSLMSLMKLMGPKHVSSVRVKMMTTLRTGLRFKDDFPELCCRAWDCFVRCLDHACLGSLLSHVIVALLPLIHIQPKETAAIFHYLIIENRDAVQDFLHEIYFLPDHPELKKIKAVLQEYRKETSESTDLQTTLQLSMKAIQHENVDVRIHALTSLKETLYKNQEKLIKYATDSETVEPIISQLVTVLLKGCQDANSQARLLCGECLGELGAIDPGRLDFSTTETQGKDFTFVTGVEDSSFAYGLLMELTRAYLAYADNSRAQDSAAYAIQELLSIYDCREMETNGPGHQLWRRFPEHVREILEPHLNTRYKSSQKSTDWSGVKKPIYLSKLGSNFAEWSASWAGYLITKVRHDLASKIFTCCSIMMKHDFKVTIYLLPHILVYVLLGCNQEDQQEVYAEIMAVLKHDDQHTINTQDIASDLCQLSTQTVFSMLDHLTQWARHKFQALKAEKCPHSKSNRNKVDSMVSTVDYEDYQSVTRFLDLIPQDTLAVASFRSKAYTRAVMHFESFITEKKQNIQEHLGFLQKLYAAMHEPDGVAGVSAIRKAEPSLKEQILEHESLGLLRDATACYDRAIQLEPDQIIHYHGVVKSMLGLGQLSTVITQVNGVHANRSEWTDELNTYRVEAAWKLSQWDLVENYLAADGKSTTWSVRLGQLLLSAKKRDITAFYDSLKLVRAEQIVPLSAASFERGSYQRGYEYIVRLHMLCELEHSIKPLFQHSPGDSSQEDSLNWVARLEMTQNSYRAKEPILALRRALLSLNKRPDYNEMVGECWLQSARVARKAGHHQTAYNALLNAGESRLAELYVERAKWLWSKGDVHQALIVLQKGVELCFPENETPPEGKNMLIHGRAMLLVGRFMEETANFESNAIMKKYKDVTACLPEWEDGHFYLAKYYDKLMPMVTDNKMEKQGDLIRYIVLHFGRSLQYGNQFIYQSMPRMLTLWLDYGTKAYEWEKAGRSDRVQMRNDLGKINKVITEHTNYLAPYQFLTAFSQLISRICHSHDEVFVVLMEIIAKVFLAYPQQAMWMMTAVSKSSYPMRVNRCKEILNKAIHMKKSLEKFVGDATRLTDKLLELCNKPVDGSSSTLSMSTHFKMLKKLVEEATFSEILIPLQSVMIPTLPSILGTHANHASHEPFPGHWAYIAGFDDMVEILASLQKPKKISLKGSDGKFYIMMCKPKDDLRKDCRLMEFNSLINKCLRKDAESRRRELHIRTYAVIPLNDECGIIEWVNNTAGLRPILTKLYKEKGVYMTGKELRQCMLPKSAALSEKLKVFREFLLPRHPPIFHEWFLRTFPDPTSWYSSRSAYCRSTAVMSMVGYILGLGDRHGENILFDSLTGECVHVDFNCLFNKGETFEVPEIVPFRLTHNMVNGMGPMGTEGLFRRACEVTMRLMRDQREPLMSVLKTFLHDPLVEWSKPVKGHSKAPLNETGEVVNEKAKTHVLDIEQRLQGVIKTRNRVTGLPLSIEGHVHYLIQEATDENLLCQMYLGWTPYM

Take `Nc1ccn([C@@H]2O[C@H](CO)[C@@H](O)C2(F)F)c(=O)n1` [GEMCITABINE]: in the test on NCI-H1703 [1], the inhibition in vivo at 50 mg/kg came out at 76.7%.

As to `C[C@@H]1COCCN1c1cc(C2([S@](C)(=N)=O)CC2)nc(-c2cc[nH]c3nccc2-3)n1` [CERALASERTIB], the Activity turned out to be 19.3% in the test on LoVo [2], 1.93% in the test on LoVo [4] and 24% in the test on LoVo [5]. Moreover, in the test on LoVo [3], the viability at 3 µM was found to be 54.7%. In the test on CWR22R, it took 0.92 µM to reach half-maximal inhibition (IC50). For the same compound, the values for the inhibition in vivo at 50 mg/kg in the test with LoVo [6], in the test on NCI-H1703 [7] and in the test on JeKo-1 were 57%, 34% and 90.6%, respectively.

For the compound `Cn1cncc1-c1c(F)cncc1NC(=O)c1c(N)nn2cc(F)cnc12` [TUVUSERTIB], the values for the IC50 (with NCI-H146; in test [8]) were 0.73 µM and under 1 µM, respectively.
